{"source": "ChEMBL document CHEMBL1144536", "about": "“Ring substituent effects on biological activity of vinyl sulfones as inhibitors of HIV-1” (Bioorg Med Chem, 2007)", "key": {"[1]": {"target": "T1, Human immunodeficiency virus type 1 integrase (Human immunodeficiency virus 1, UniProt Q7ZJM1)", "T1 sequence (Q7ZJM1 whole entry)": "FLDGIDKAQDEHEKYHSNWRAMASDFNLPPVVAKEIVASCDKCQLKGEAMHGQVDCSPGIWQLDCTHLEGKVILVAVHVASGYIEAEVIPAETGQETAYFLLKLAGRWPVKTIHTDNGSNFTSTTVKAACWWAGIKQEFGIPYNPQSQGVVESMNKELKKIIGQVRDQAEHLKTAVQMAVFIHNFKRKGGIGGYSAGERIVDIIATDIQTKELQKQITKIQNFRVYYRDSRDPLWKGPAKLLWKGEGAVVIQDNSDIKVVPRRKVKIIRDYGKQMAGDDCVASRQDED", "assay": "Inhibition of HIV1 integrase-mediated 3'-processing activity"}, "[2]": {"target": "T1, Human immunodeficiency virus type 1 integrase", "assay": "Inhibition of HIV1 integrase-mediated integration activity"}, "[3]": {"assay": "Cytotoxicity against HeLa H1-JC.37 cells by MTS assay", "type": "cell-based", "settings": "Homo sapiens"}, "[4]": {"tested_on": "Human immunodeficiency virus 1", "assay": "Antiviral activity against HIV1 by focal infectivity assay", "type": "functional, organism-based"}, "[5]": {"assay": "Selectivity ratio of EC50 for HIV1 to IC50 for HeLa H1-JC.37 cells", "type": "functional"}}, "note": "pEC50, pIC50: −log10 of the molar value.", "data": [{"compound": "O=S(=O)(CCc1ccccc1)CS(=O)(=O)CCc1ccccc1", "values": [{"measurement": "pIC50", "setting": "[1]", "value": "< 4.00"}, {"measurement": "pIC50", "setting": "[2]", "value": "< 4.00"}, {"measurement": "pIC50", "setting": "[3]", "value": "< 3.82"}, {"measurement": "pEC50", "setting": "[4]", "value": "< 5.00"}]}, {"compound": "COc1ccc(Br)cc1/C=C/S(=O)(=O)CS(=O)(=O)/C=C/c1cc(Br)ccc1OC", "values": [{"measurement": "pIC50", "setting": "[1]", "value": "< 4.00"}, {"measurement": "pIC50", "setting": "[2]", "value": "< 4.00"}, {"measurement": "pEC50", "setting": "[4]", "value": "< 5.00"}]}, {"compound": "O=S(=O)(/C=C/c1cccc(Br)n1)CS(=O)(=O)/C=C/c1cccc(Br)n1", "values": [{"measurement": "pIC50", "setting": "[1]", "value": "< 3.00"}, {"measurement": "pIC50", "setting": "[2]", "value": 3.05}, {"measurement": "pEC50", "setting": "[4]", "value": "< 5.00"}]}, {"compound": "O=S(=O)(/C=C/c1ccccc1)CS(=O)(=O)/C=C/c1ccccc1", "values": [{"measurement": "pIC50", "setting": "[1]", "value": "< 4.00"}, {"measurement": "pIC50", "setting": "[2]", "value": "< 4.00"}, {"measurement": "pIC50", "setting": "[3]", "value": 4.92}, {"measurement": "pEC50", "setting": "[4]", "value": 5.92}, {"measurement": "Ratio IC50/EC50", "setting": "[5]", "value": 9.9}]}, {"compound": "O=S(=O)(/C=C/c1ccc2c(c1)OCCO2)CS(=O)(=O)/C=C/c1ccc2c(c1)OCCO2", "values": [{"measurement": "pIC50", "setting": "[1]", "value": "< 4.00"}, {"measurement": "pIC50", "setting": "[2]", "value": "< 4.00"}, {"measurement": "pEC50", "setting": "[4]", "value": "< 5.00"}]}, {"compound": "COc1cc(/C=C/S(=O)(=O)CS(=O)(=O)/C=C/c2cc(Br)c(OC)c(OC)c2)cc(Br)c1OC", "values": [{"measurement": "pIC50", "setting": "[1]", "value": "< 4.00"}, {"measurement": "pIC50", "setting": "[2]", "value": "< 4.00"}, {"measurement": "pEC50", "setting": "[4]", "value": "< 5.00"}]}, {"compound": "O=C(O)c1ccc(/C=C/S(=O)(=O)CS(=O)(=O)/C=C/c2ccc(C(=O)O)cc2)cc1", "values": [{"measurement": "pIC50", "setting": "[1]", "value": 4.48}, {"measurement": "pIC50", "setting": "[2]", "value": 4.48}, {"measurement": "pEC50", "setting": "[4]", "value": "< 5.00"}]}, {"compound": "O=S(=O)(CCc1ccc(O)c(O)c1)CS(=O)(=O)CCc1ccc(O)c(O)c1", "values": [{"measurement": "pIC50", "setting": "[1]", "value": 4.40}, {"measurement": "pIC50", "setting": "[2]", "value": 4.77}, {"measurement": "pIC50", "setting": "[3]", "value": 3.77}, {"measurement": "pEC50", "setting": "[4]", "value": 5.21}, {"measurement": "Ratio IC50/EC50", "setting": "[5]", "value": 27}]}, {"compound": "O=S(=O)(CCc1cc(F)c(F)c(F)c1)CS(=O)(=O)CCc1cc(F)c(F)c(F)c1", "values": [{"measurement": "pIC50", "setting": "[1]", "value": 3.05}, {"measurement": "pIC50", "setting": "[2]", "value": 3.48}, {"measurement": "pIC50", "setting": "[3]", "value": 3.96}, {"measurement": "pEC50", "setting": "[4]", "value": "< 5.00"}]}, {"compound": "O=S(=O)(/C=C/c1cc(F)c(F)c(F)c1)CS(=O)(=O)/C=C/c1cc(F)c(F)c(F)c1", "values": [{"measurement": "pIC50", "setting": "[1]", "value": "< 4.00"}, {"measurement": "pIC50", "setting": "[2]", "value": "< 4.00"}, {"measurement": "pIC50", "setting": "[3]", "value": 5.11}, {"measurement": "pEC50", "setting": "[4]", "value": 5.70}, {"measurement": "Ratio IC50/EC50", "setting": "[5]", "value": 3.9}]}, {"compound": "O=S(=O)(/C=C/c1ccc(OCc2ccccc2)c(OCc2ccccc2)c1)CS(=O)(=O)/C=C/c1ccc(OCc2ccccc2)c(OCc2ccccc2)c1", "values": [{"measurement": "pIC50", "setting": "[1]", "value": "< 4.00"}, {"measurement": "pIC50", "setting": "[2]", "value": "< 4.00"}, {"measurement": "pEC50", "setting": "[4]", "value": "< 5.00"}]}, {"compound": "O=S(=O)(/C=C/c1cc(Cl)ccc1Cl)CS(=O)(=O)/C=C/c1cc(Cl)ccc1Cl", "values": [{"measurement": "pIC50", "setting": "[1]", "value": "< 4.00"}, {"measurement": "pIC50", "setting": "[2]", "value": "< 4.00"}, {"measurement": "pIC50", "setting": "[3]", "value": 5.59}, {"measurement": "pEC50", "setting": "[4]", "value": 5.47}, {"measurement": "Ratio IC50/EC50", "setting": "[5]", "value": 0.77}]}, {"compound": "O=S(=O)(/C=C/c1cc(OCc2ccccc2)c(OCc2ccccc2)c(OCc2ccccc2)c1)CS(=O)(=O)/C=C/c1cc(OCc2ccccc2)c(OCc2ccccc2)c(OCc2ccccc2)c1", "values": [{"measurement": "pIC50", "setting": "[1]", "value": "< 4.00"}, {"measurement": "pIC50", "setting": "[2]", "value": "< 4.00"}, {"measurement": "pEC50", "setting": "[4]", "value": "< 5.00"}]}, {"compound": "O=S(=O)(/C=C/c1ccccc1OCc1ccccc1)CS(=O)(=O)/C=C/c1ccccc1OCc1ccccc1", "values": [{"measurement": "pIC50", "setting": "[1]", "value": "< 4.00"}, {"measurement": "pIC50", "setting": "[2]", "value": "< 4.00"}, {"measurement": "pEC50", "setting": "[4]", "value": "< 5.00"}]}, {"compound": "COc1cc(/C=C/S(=O)(=O)CS(=O)(=O)/C=C/c2cc(OC)c(OC)cc2[N+](=O)[O-])c([N+](=O)[O-])cc1OC", "values": [{"measurement": "pIC50", "setting": "[1]", "value": 3.30}, {"measurement": "pIC50", "setting": "[2]", "value": 3.30}, {"measurement": "pEC50", "setting": "[4]", "value": "< 5.00"}]}, {"compound": "O=S(=O)(/C=C/c1ccc2[nH]ccc2c1)CS(=O)(=O)/C=C/c1ccc2[nH]ccc2c1", "values": [{"measurement": "pIC50", "setting": "[1]", "value": "< 4.00"}, {"measurement": "pIC50", "setting": "[2]", "value": 4.02}, {"measurement": "pEC50", "setting": "[4]", "value": "< 5.00"}]}, {"compound": "COc1cc(Br)c(/C=C/S(=O)(=O)CS(=O)(=O)/C=C/c2cc(OC)c(OC)cc2Br)cc1OC", "values": [{"measurement": "pIC50", "setting": "[1]", "value": 3.07}, {"measurement": "pIC50", "setting": "[2]", "value": 3.30}, {"measurement": "pEC50", "setting": "[4]", "value": "< 5.00"}]}, {"compound": "COc1cc(OC)c(OC)cc1/C=C/S(=O)(=O)CS(=O)(=O)/C=C/c1cc(OC)c(OC)cc1OC", "values": [{"measurement": "pIC50", "setting": "[1]", "value": "< 3.00"}, {"measurement": "pIC50", "setting": "[2]", "value": "< 3.00"}, {"measurement": "pEC50", "setting": "[4]", "value": "< 5.00"}]}]}
